Assay results: patent US10105384B2, “Nucleic acids targeting TCTP for use in the treatment of chemo- or hormone-resistant cancers” (INSTITUT NATIONAL DE LA SANTE ET DE LA RECHERCHE MEDICALE …, priority 2010, dated 2018)
Peptide text beside a SMILES is read from it. * marks the point of attachment. Cbz = O=C(OCc1ccccc1)*

Tests used:
Assay type in all cases: cell-based, human
TCTP [1] = assay: ASO sequences screening: TCTP expression by western blot and/or qRT-PCR; conditions: WB and/or qRT-PCR, PC-3 cells overexpressing TCTP
Method: (§1) Western Blot analysis was performed as described previously (Rocchi et al., 2004, Cancer Res. 64:6595-602) with 1:5000 rabbit anti-Hsp27 polyclonal antibody (Assay Designs, Villeurbanne, France), 1:2000 rabbit TCTP polyclonal antibody (Abcam Inc., Cambridge, UK), 1:250 rabbit anti-MSL1v1 polyclonal antibody (Abcam Inc.), 1:500 mouse anti-ubiquitin monoclonal antibody (Santa Cruz Biotechnology Inc., Heidelberg, Germany) or 1:1000 rabbit anti-caspase-3 polyclonal antibody (Cell Signalling Technology Inc., Danvers, USA). Loading levels were normalized using 1:5000 rabbit anti-glyceraldehyde-3-phosphate dehydrogenase polyclonal (Abcam Inc.) or 1:2500 mouse anti-vinculine monoclonal antibodies (Sigma Chemical Co., St Louis, Mo., USA).
The quantitative reverse transcription polymerase chain reaction (qRT-PCR) analysis was done on a LightCycler detection system (Roche Applied Science, Meylan, France). Expression levels of 18S subunit of the ribosome gene were used as an internal control. First strand cDNA was synthesized from 1 μg of total RNA using random hexamers and expanded by reverse transcriptase according to the manufacturer's instructions (ImProm-II Reverse Transcription System, Promega, Charbonniéres-les-Bains, France), subsequently diluted 1:10 with water, and stored at −20° C. until use. TCTP and 18S polymerase chain reaction (PCR) products were detected by quantitative real time PCR (qRT-PCR) using the SYBR Premix Ex Taq (Takara Bio Inc, St Germain en Laye, France) following the manufacturer's instructions. Five microliters of diluted cDNA template were mixed with 10 μl SYBR Premix Ex Taq (including Taq polymerase, reaction buffer, MgCl2, SYBR green I dye, and deoxynucleotide triphosphate mix) and 0.4 μM forward and reverse primers, in a final volume of 20 μl. The following primers were used: TCTP forward 5′-[…]-3′ (SEQ ID NO: 8) and TCTP reverse 5′-[…]-3′; (SEQ ID NO: 9); 18S forward 5′-[…]-3′ (SEQ ID NO: 10) and 18S reverse 5′-[…]-3′ (SEQ ID NO: 11). After an initial Taq activation for 10 seconds at 95° C., Light Cycler PCR was done using 55 cycles with the following cycling conditions: 95° C. for 5 seconds, 58° C. for 7 seconds, and 72° C. for 14 seconds. Each sample was analyzed in duplicate and the experiment was repeated three times. Results were analyzed using RealQuant data analysis software (Roche, Neuilly-sur-seine, France). The results analysis was done with the 2(-Delta Delta C(T)) Method (Livak K J. et al., 2001; Methods. 25:402-8).
In order to find a sequence ASO having an inhibiting effect on TCTP expression, 30 ASO sequences have been designed 26 of which are shown in table 1. Said 30 sequences cover the TCTP mRNA (accession number NM_003295). Using BLAST program, the specificity of said sequences has been studied. Among said 30 sequences, only 15 sequences have been identified as being specific for TCPT mRNA sequence (see table 1). The effect of said ASO sequences on TCTP expression was tested by western blot analysis (WB) and/or by quantitative reverse transcription polymerase chain reaction (qRT-PCR) on PC-3 cells overexpressing TCTP. WB and qRT-PCR were performed as exposed in example 1.

PC-3 cells = assay: MTT cell growth assay, PC-3 cells; conditions: PC-3 cells, 50 nM docetaxel 24 h, MTT
Method: In brief, cells were seeded in each well of 12-well microtiter plates (30 000 to 50 000 cells per well) and allowed to attach overnight. To study the effect of TCTP downregulation on apoptosis induced by docetaxel, PC-3 cells were transiently transfected the day after seeding with 5 nM of TCTP siRNA for 48 h or 100 nM of TCTP ASO for 72 h. Cells were then treated with 50 nM of docetaxel and MTT assays were performed after 24 h. To assess the effect of TCTP downregulation on Hsp27 cytoprotection, LNCaP-Mock and -Hsp27 cells were transiently transfected the day after seeding with 5 nM of TCTP siRNA for 48 h. The down- or upregulation of TCTP effect on LNCaP and C4-2 cell viability was realized after transient transfections with 100 nM of TCTP ASO or 0.02 μg/μl of pDEST-TCTP for 72 h and 48 h respectively. Cells were then treated with 1 nM of docetaxel in serum-free media (mimics androgen withdrawal in vitro) and crystal violet assays were performed the day after. Each assay was performed in triplicate.
To assess the effect of TCTP down-regulation on CR cell growth, PC-3 cells were treated for 1 day with 5 nM TCTP siRNA or for 2 days with 100 nM TCTP ASO. At the end of the treatment, PC-3 cells were incubated with 50 nM of docetaxel. Growth rates of PC-3 cells were examined using the 3-(4,5-dimethylthiazol-2-yl)-2,5-diphenyltetrazolium bromide assay. […] The effect of the inhibition of TCTP on cell survival was analyzed in PC-3 after combined ASO and docetaxel-chemotherapy treatment. After 24 h of treatment with 50 nM of docetaxel, cell viability was determined using a MTT assay. The experiment was repeated in triplicate. *** differs from PC-3 transfected with control-siRNA (P50.001) using Statview software. […] The same effect has been observed with TCTP siRNA (SEQ ID NO: 3) and 5′-[…]-3′ (SEQ ID NO: 14) and 5′-[…]-3′ (SEQ ID NO: 15) ASOs.
PC3 cells were transfected with a TCTP siRNA of SEQ ID NO: 3. Cell proliferation and apoptosis were studied using respectively MTT (3-(4,5-dimethylthiazol-2-yl)-2,5-diphenyl tetrazolium bromure) assay and flow cytometry.
PC3 cells were transfected with a TCTP ASO of SEQ ID NO: 2. Cell proliferation and apoptosis were studied using respectively MTT assay and flow cytometry.

TCTP [2] = assay: TCTP half-life / proteasomal degradation in PC-3 cells (western blot); conditions: for TCTP protein levels decrease: PC-3 cells, cycloheximide alone 20 μg/ml
Method: Cells were plated at a density of 25,000 (PC-3) and 75 000 (LNCaP and C4-2) by 1.9 cm^2 and treated the day after with indicated siRNA or ASO for 1 or 2 days respectively. Oligofectamine, a cationic lipid (Invitrogen), was used to increase siRNA or ASO uptake into the cells. Cells were treated with indicated siRNA or ASO concentrations after a preincubation for 20 min with […] of oligofectamine in serum free OPTI-MEM (Invitrogen). Four hours later, 1 ml of FCS was added in the medium. […]
To determine whether the ubiquitination of TCTP results in its proteasomal degradation, TCTP half-life was determined after OGX-427 treatment, in the presence or absence of the proteasome inhibitor MG132 and protein synthesis inhibitor cycloheximide after 2 days.

TCTP [3] = assay: TCTP level in LNCaP cells after Hsp27 down-regulation by OGX-427 (western blot, mRNA)
Method: as §1
2′-O-(2-rnethoxyethyl) ASO, OGX-427, was obtained from OncoGenex. The sequence of OGX-427 corresponds to the human Hsp27 translation initiation site (5′-GGGACGCGG-CGCTCGGTCAT-3′) (SEQ ID NO: 12). A mismatch ASO (ASO; 5′-[…]-3′) (SEQ ID NO: 13) was used as a control. The TCTP phosphorithioate ASO targeting the human TCTP (5′-[…]-3′) (SEQ ID NO: 2) and the control oligonucleotide (5′-CGTGTAGGTACGGCAGATC-3′) (SEQ ID NO: 4) were purchased from Operon (Eurofin MWG, Courtaboeuf, France) and designated ASO TCTP or ASO scrambled. […]

Compound	ability to inhibit TCTP expression (TCTP [1])	best ability to inhibit specifically TCTP expression (TCTP [1])	enhancement of docetaxel sensitivity (PC-3 cells)	also measured
5′-AACTTGTTTCCTGCAGGTGA-3′ (all phosphorothioate, sugars by position and methylation of C not given here) [ASO15]	strong ability to inhibit TCTP expression	best ability to inhibit specifically TCTP expression	same effect	–
CC(C)C[C@@H](C=O)NC(=O)[C@H](CC(C)C)NC(=O)[C@H](CC(C)C)NC(=O)OCc1ccccc1 [MG132] (Cbz-Leu-Leu-Leu-aldehyde)	–	–	–	TCTP half-life (TCTP [2]; PC-3 cells after OGX-427 treatment, MG132 10 μmol/L): prolonged the half-life of TCTP
5′-TGGTTCATGACAATATCGAC-3′ (all phosphorothioate, sugars by position and methylation of C not given here) [ASO14]	strong ability to inhibit TCTP expression	best ability to inhibit specifically TCTP expression	same effect	–
C[C@@H]1C[C@@H]([C@H](O)CC2CC(=O)NC(=O)C2)C(=O)[C@@H](C)C1 [cycloheximide]	–	–	–	TCTP protein levels decrease (TCTP [2]; 24 h): 40%; TCTP protein levels decrease (TCTP [2]; 48 h): 60%
5′-GGGACGCGG-CGCTCGGTCAT-3′ (antisense GGGACGCGGCGCTCGGTCAT; 2'-O-(2-methoxyethyl) modified ASO, pattern not given here) [OGX-427, 2′-O-(2-methoxyethyl) ASO from OncoGenex corresponding to the human Hsp27 translation initiation site]	–	–	–	TCTP mRNA expression level (TCTP [3]; LNCaP cells treated by OGX-427): without any change; TCTP protein level lower than OGX-427-control (TCTP [3]; LNCaP cells, western blot): 70%
